Our source for the Bliss excess values is the supplement of paper PMC11061612.

Common to all, as to experiment: Bliss excess, mean over the matrix (fraction); higher = more synergy
Assay [1] has as its system SNU-175 (Colorectal Carcinoma). The method, boiled down: (§1)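 After 24 hours at 37°C and 5% CO2 in 1536-well plates, cells in DMEM/F12 or RPMI plus 10% FBS received two-drug dose matrices for 72 hours. Viability came from CellTiter-Glo 2.0 luminescence and was scaled as inhibition, anchored at 0 by vehicle wells and at 1 by blank wells. Combination Emax is taken as the second-highest inhibition in the matrix, and Bliss excess as the observed combination effect less EA + EB − EA·EB, with EA and EB the single-agent effects.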

In assay [2] the test system is NKM-1 (Acute Myeloid Leukemia). In short, it runs like this: as §1
The subject of assay [3] is NCI-H1155 (Non-Small Cell Lung Carcinoma). In short, it runs like this:
as §1

The subject of the next assay is HuO-3N1 (Osteosarcoma). The method, boiled down:
as §1

For assay [4], the system named is JHH-1 (Hepatocellular Carcinoma). In short, it runs like this: as §1
Assay [5] concerns RMG-I (Ovarian Carcinoma). The method, boiled down:
as §1

Assay [6] concerns AsPC-1 (Pancreatic Carcinoma). In short, it runs like this:
as §1

In assay [7] the test system is OVTOKO (Ovarian Carcinoma). The method, boiled down: as §1
For assay [8], the system named is AN3-CA (Endometrial Carcinoma). The method, boiled down:
as §1

The test system of assay [9] is RPMI-8866 (Chronic Myelogenous Leukemia). The method, boiled down: as §1
In assay [10] the test system is KYSE-70 (Esophageal Squamous Cell Carcinoma). In short, it runs like this:
as §1

For assay [11], the system named is PANC-02-03 (Pancreatic Carcinoma). In short, it runs like this: as §1
The subject of assay [12] is NCI-H1755 (Lung Adenocarcinoma). The method, boiled down: as §1
The next assay deals with RT4 (Bladder Carcinoma). The method, boiled down:
as §1

The subject of assay [13] is SK-MM-2 (Plasma Cell Myeloma). In short, it runs like this: as §1
A further assay has as its system KYM-1 (Rhabdomyosarcoma). In short, it runs like this: as §1
Assay [14] has as its system SJRH30 (Rhabdomyosarcoma). The method, boiled down: as §1
Assay [15] concerns OV-90 (Ovarian Carcinoma). The method, boiled down:
as §1

Assay [16] concerns HSC-3 (Oral Cavity Carcinoma). The method, boiled down: as §1

On to `NC1(C(=O)N[C@@H](CCO)c2ccc(Cl)cc2)CCN(c2ncnc3[nH]ccc23)CC1` [Capivasertib] + C[C@@H]1COCCN1C2=NC(=NC(=C2)C3(CC3)[S@](=N)(=O)C)C4=C5C=CNC5=NC=C4 [AZD6738] (first compound max 10 µM, 7x7, partner max 10 µM), for which the Bliss excess in assay [1] was -0.0099; in assay [2], -0.0479; in [3] it was -0.0362; with HuO-3N1 (Osteosarcoma), -0.11; in assay [4] it was -0.0294; in assay [5], -0.0371. Also, the Bliss excess in assay [6] was -0.0359; in [7], -0.0084; in assay [8], -0.0526; in [9] it was -0.0323; in assay [10] it was -0.0691; in [11] it was -0.004. For the same molecule, the Bliss excess is -0.0244 in [12]; -0.022 with RT4 (Bladder Carcinoma); -0.0164 in assay [13]; -0.0693 with KYM-1 (Rhabdomyosarcoma); -0.0324 in assay [14]; -0.0159 in [15]. For the same molecule, in assay [16], the Bliss excess is -0.0346.

With `COc1nnc2ccc(N3CCC(c4ccc(OCCN5CCN(C)C(=O)[C@H]5C)cc4)CC3)nn12` [AZD5153] + C=CCn1c(=O)c2cnc(Nc3ccc(N4CCN(C)CC4)cc3)nc2n1-c1cccc(C(C)(C)O)n1 [AZD1775] (first compound max 1 µM, partner max 1 µM), the Bliss excess in assay [1] was -0.0647; in assay [2] it was -0.124; in assay [3] it was 0.0523; in the assay on HuO-3N1 (Osteosarcoma), -0.0584; in [4], 0.0173; in [5], -0.0187. For the same molecule, the Bliss excess in [6] is 0.0167; in [7], 0.0095; in [8], -0.0624; in assay [9], -0.0864; in assay [10], -0.0519; in [11] it was -0.0823. Also, the Bliss excess in assay [12] was -0.0088; with RT4 (Bladder Carcinoma), -0.0064; in assay [13], -0.0484; in the assay on KYM-1 (Rhabdomyosarcoma), -0.0249; in assay [14] it was -0.019; in [15], -0.0367. In addition, the Bliss excess in assay [16] was -0.0396.

Consider `COc1nnc2ccc(N3CCC(c4ccc(OCCN5CCN(C)C(=O)[C@H]5C)cc4)CC3)nn12` [AZD5153] + Cn1cnc2c(F)c(Nc3ccc(Br)cc3Cl)c(C(=O)NOCCO)cc21 [Selumetinib] (first compound max 1 µM, 7x7, partner max 10 µM), for which the Bliss excess was -0.0007 in assay [1]; 0.0071 in assay [2]; -0.035 in assay [3]; -0.0026 in the assay with HuO-3N1 (Osteosarcoma); 0.0139 in [4]; -0.0486 in assay [5]. Further, the Bliss excess was -0.0238 in [6]; -0.0591 in assay [7]; -0.0484 in assay [8]; -0.0233 in [9]; 0.0097 in assay [10]; 0.0742 in assay [11]. Besides, the Bliss excess in assay [12] is 0.0053; in the assay with RT4 (Bladder Carcinoma), 0.0073; in assay [13], -0.004; in the assay with KYM-1 (Rhabdomyosarcoma), 0.0086; in assay [14], 0.0152; in [15], -0.0203. Moreover, in assay [16], the Bliss excess was -0.0211.

Consider `CC(=O)c1c(C)c2cnc(Nc3ccc(N4CCNCC4)cn3)nc2n(C2CCCC2)c1=O` [Palbociclib] + CC1(C)CCC(CN2CCN(c3ccc(C(=O)NS(=O)(=O)c4ccc(NCC5CCOCC5)c([N+](=O)[O-])c4)c(Oc4cnc5[nH]ccc5c4)c3)CC2)=C(c2ccc(Cl)cc2)C1 [Venetoclax] (first compound max 10 µM, 7x7, partner max 1 µM), for which the Bliss excess is 0.0639 in [1]; 0.0548 in assay [2]; 0.0241 in assay [3]; -0.0312 in the assay on HuO-3N1 (Osteosarcoma); -0.0601 in [4]; -0.0541 in assay [5]. Besides, the Bliss excess is -0.0715 in [6]; -0.0114 in assay [7]; -0.024 in [8]; -0.0632 in assay [9]; -0.0465 in [10]; -0.0319 in assay [11]. Moreover, the Bliss excess in [12] was 0.0337; with RT4 (Bladder Carcinoma), 0.0032; in assay [13] it was -0.0265; with KYM-1 (Rhabdomyosarcoma), -0.0392; in assay [14] it was -0.0363; in assay [15], -0.0553. The Bliss excess in assay [16] is 0.0148.

`COc1nnc2ccc(N3CCC(c4ccc(OCCN5CCN(C)C(=O)[C@H]5C)cc4)CC3)nn12` [AZD5153] + CCN(CCO)CCCOc1ccc2c(Nc3cc(CC(=O)Nc4cccc(F)c4)[nH]n3)ncnc2c1 [AZD2811] (first compound max 1 µM, 7x7, partner max 1 µM): the Bliss excess was -0.112 in assay [1]; -0.0201 in assay [2]; 0.0177 in assay [3]; -0.0705 in the assay on HuO-3N1 (Osteosarcoma); -0.0292 in assay [4]; -0.0479 in assay [5]. Moreover, the Bliss excess is -0.0427 in [6]; -0.0423 in [7]; -0.0375 in [8]; 0.0254 in assay [9]; -0.0265 in assay [10]; -0.0809 in assay [11]. In addition, the Bliss excess was -0.0058 in [12]; -0.0391 in the assay on RT4 (Bladder Carcinoma); -0.0366 in assay [13]; -0.0682 with KYM-1 (Rhabdomyosarcoma); 0.109 in assay [14]; -0.0226 in assay [15]. Further, the Bliss excess in [16] was -0.0509.

As for `Cn1cnc2c(F)c(Nc3ccc(Br)cc3Cl)c(C(=O)NOCCO)cc21` [Selumetinib] + CC(C)n1c(=O)n(C)c2cnc3cc(F)c(-c4ccc(OCCCN5CCCCC5)nc4)cc3c21 [AZD1390] (first compound max 10 µM, 7x7, partner max 0.3 µM), the Bliss excess in assay [1] is 0.0063; in [2] it was -0.107; in assay [3], -0.0679; in the assay on HuO-3N1 (Osteosarcoma), -0.0618; in assay [4], -0.0268; in assay [5], -0.0268. Besides, the Bliss excess in assay [6] is -0.0093; in assay [7], -0.0509; in assay [8], -0.0669; in assay [9], -0.0193; in assay [10], -0.0481; in [11], -0.0139. Also, the Bliss excess in [12] is 0.0153; in the assay with RT4 (Bladder Carcinoma), -0.0267; in assay [13], -0.0084; in the assay with KYM-1 (Rhabdomyosarcoma), -0.0207; in assay [14], -0.031; in assay [15] it was 0.0131. The Bliss excess in assay [16] is -0.0424.

Turning to `C[C@@H](c1ccc2nccn2c1)n1nnc2ncc(-c3cnn(C)c3)nc21` [Savolitinib] + CC1(C)CCC(CN2CCN(c3ccc(C(=O)NS(=O)(=O)c4ccc(NCC5CCOCC5)c([N+](=O)[O-])c4)c(Oc4cnc5[nH]ccc5c4)c3)CC2)=C(c2ccc(Cl)cc2)C1 [Venetoclax] (first compound max 1 µM, 7x7, partner max 1 µM), the Bliss excess in assay [1] was -0.0764; in [2], 0.0653; in assay [3], -0.0365; with HuO-3N1 (Osteosarcoma), -0.0708; in assay [4], -0.0529; in [5] it was -0.0756. Also, the Bliss excess in [6] was -0.0743; in [7], -0.0675; in [8], -0.0499; in assay [9], -0.0452; in assay [10], -0.0504; in [11], -0.0231. For the same molecule, the Bliss excess is -0.05 in [12]; -0.055 in the assay on RT4 (Bladder Carcinoma); -0.019 in [13]; -0.0133 in the assay on KYM-1 (Rhabdomyosarcoma); -0.0577 in assay [14]; -0.063 in [15]. Moreover, the Bliss excess in assay [16] was -0.0383.
